Test results as given in patent US11596611B2, “Hepatitis B antiviral agents” (ENANTA PHARMACEUTICALS, INC., priority 2017, dated 2023).
Like-named read-outs stand apart in the source and are kept apart here.

Columns and labels:
HBV = assay: HepAD38 antiviral assay: reduction of viral product accumulation (virion DNA by qPCR, HBsAg or HBeAg by ELISA); assay type: cell-based, hepatitis B virus
Outline: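 Tetracycline-free HepAD38 cells exposed to compound (DMSO stock diluted 1:200) for 5 days, or 8 days with media and compound refreshed on d2 and d5. Virion DNA quantified by qPCR after lysis; HBsAg or HBeAg measured by ELISA on diluted samples.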

[1] = Compound toxicity by ATPLite (total ATP levels); assay type: cell-based; settings: human, three days after compound addition, 50% reduction of total ATP
Protocol: Methods: HepAD38 cells are maintained as previously reported (Ladner et al, Antimicrob. Agents Chemother. 1997, […], 1715). Briefly, cells are passaged upon attaining confluency in DMEM/F12 media in the presence of 10% FBS, Penn/Strep, 250 μg/mL G418, and 1 ug/ml tetracycline. Novel compounds are screened by first washing cells three times with PBS to remove tetracycline, and plating in 96 well plates at 35,000 cells/well. Compounds dissolved in DMSO are then diluted 1:200 into wells containing cells. Five days after compound addition, material is harvested for analysis. For an extended 8 days analysis, cells are plated and treated as described above, but media and compound are refreshed on d2 and d5 post initial treatment.
Compound toxicity is evaluated by seeding cells at 15,000 cells/well and treating with compound as described above.

[2] = Hepatitis B virus, 120 h, HepAD38 cells, five days after compound addition, 50% reduction of viral product vs no drug controls, read-out: HepAD38 EC50

## C[C@H](O)COC[C@]1(O)C2CCC1C[C@@H](S(=O)(=O)c1cc(C(=O)Nc3cc(F)c(F)c(F)c3)ccc1Cl)C2 [Example 131]
HBV; [2]
  EC50: < 0.104 µM
[1]; numeric bounds
  CC50 at 3 days: > 12500 nM

## O=C(Nc1ccc(F)c(F)c1)c1ccc(Cl)c(S(=O)(=O)[C@H]2CC3CCC(C2)[C@]3(O)C(O)Cc2ccncc2)c1 (some centres unmarked) [Example 317]
HBV; [2]
  EC50: < 0.104 µM
[1]; class symbols
  CC50 at 3 days: > 25000 nM

## Cn1cc(C(O)[C@]2(O)C3CCC2C[C@@H](S(=O)(=O)c2cc(C(=O)Nc4ccc(F)c(F)c4)ccc2Cl)C3)cn1 (some centres unmarked) [Example 289]
HBV; [2]
  EC50: < 0.104 µM
[1]; class symbols
  CC50 at 3 days: > 25000 nM

## O=C(C[C@]1(O)C2CCC1C[C@@H](S(=O)(=O)c1cc(C(=O)Nc3cc(F)c(F)c(F)c3)ccc1Cl)C2)N[C@H]1CCOC1 [Example 72]
HBV; [2]
  EC50: < 0.104 µM
[1]; numeric bounds
  CC50 at 3 days: > 3000 nM

## C[C@H](O)[C@@H](O)[C@]1(O)C2CCC1C[C@@H](S(=O)(=O)c1cc(C(=O)Nc3ccc(F)c(F)c3)ccc1Cl)C2 (mixture of isomers) [Example 173]
HBV; [2]
  EC50: < 0.104 µM
[1]; numeric bounds
  CC50 at 3 days: > 6250 nM

## CC(CO)NC(=O)C[C@]1(O)C2CCC1C[C@@H](S(=O)(=O)c1cc(C(=O)Nc3cc(F)c(F)c(F)c3)ccc1Cl)C2 (some centres unmarked) [Example 55]
HBV; [2]
  EC50: < 0.104 µM
[1]; class symbols
  CC50 at 3 days: > 25000 nM

## C[C@@H](O)[C@@H](O)[C@]1(O)C2CCC1C[C@@H](S(=O)(=O)c1cc(C(=O)Nc3ccc(F)c(F)c3)ccc1Cl)C2 (single isomer, unassigned) [Example 180]
HBV; [2]
  EC50: < 0.104 µM
[1]; class symbols
  CC50 at 3 days: > 25000 nM

## [2H]C1([2H])C2CCC(C([2H])([2H])[C@]1([2H])S(=O)(=O)c1cc(C(=O)Nc3ccc(F)c(F)c3)ccc1Cl)[C@@]2(O)CO [Example 279]
HBV; [2]
  EC50: < 0.104 µM
[1]; class symbols
  CC50 at 3 days: > 25000 nM

## O=C(Nc1ccc(F)c(F)c1)c1ccc(Cl)c(S(=O)(=O)[C@H]2CC3CCC(C2)[C@]3(O)C(O)c2ncco2)c1 (some centres unmarked) [Example 290]
HBV; [2]
  EC50: < 0.104 µM
[1]; class symbols
  CC50 at 3 days: > 25000 nM

## C/C=C/C(=O)NC[C@]1(O)C2CCC1C[C@@H](S(=O)(=O)c1cc(C(=O)Nc3cc(F)c(F)c(F)c3)ccc1Cl)C2 [Example 12]
HBV; [2]
  EC50: < 0.104 µM
[1]; numeric bounds
  CC50 at 3 days: > 3000 nM

## C[C@@H](O)CNC(=O)C[C@]1(O)C2CCC1C[C@@H](S(=O)(=O)c1cc(C(=O)Nc3ccc(F)c(C(F)F)c3)ccc1Cl)C2 [Example 155]
HBV; [2]
  EC50: < 0.104 µM
[1]; class symbols
  CC50 at 3 days: > 25000 nM

## CC(C)(O)[C@@H](O)[C@@]1(O)C2CC[C@H]1C[C@H](S(=O)(=O)c1cc(C(=O)Nc3ccc(F)c(F)c3)ccc1Cl)C2 [Example 332]
HBV; [2]
  EC50: < 0.104 µM
[1]; class symbols
  CC50 at 3 days: > 25000 nM

## CO[C@H](C)CNC(=O)C[C@]1(O)C2CCC1C[C@@H](S(=O)(=O)c1cc(C(=O)Nc3ccc(F)c(F)c3)ccc1Cl)C2 [Example 189]
HBV; [2]
  EC50: < 0.104 µM
[1]; numeric bounds
  CC50 at 3 days: > 12500 nM

## C[C@@H](O)COC[C@]1(O)C2CCC1C[C@@H](S(=O)(=O)c1cc(C(=O)Nc3ccc(F)c(F)c3)ccc1Cl)C2 [Example 177]
HBV; [2]
  EC50: < 0.104 µM
[1]; numeric bounds
  CC50 at 3 days: > 6250 nM

## COC(=O)[C@H]1O[C@@H](OC[C@@]2(O)C3CC[C@H]2C[C@H](S(=O)(=O)c2cc(C(=O)Nc4ccc(F)c(F)c4)ccc2Cl)C3)[C@H](OC(C)=O)[C@@H](OC(C)=O)[C@@H]1OC(C)=O [Example 329]
HBV; [2]
  EC50: < 0.104 µM
[1]; class symbols
  CC50 at 3 days: > 25000 nM

## O=C(Nc1ccc(F)c(F)c1)c1ccc(Cl)c(S(=O)(=O)[C@H]2CC3CCC(C2)[C@]3(O)[C@@H](O)c2ccccn2)c1 (single isomer, unassigned) [Example 284a]
HBV; [2]
  EC50: < 0.104 µM

## COC(=O)N[C@@H](C)C(=O)NC[C@]1(O)C2CCC1C[C@@H](S(=O)(=O)c1cc(C(=O)Nc3ccc(F)c(F)c3)ccc1Cl)C2 [Example 159]
HBV; [2]
  EC50: < 0.104 µM

## COC(=O)N1CCCC1C(=O)NC[C@@]1(O)C2CC[C@H]1C[C@H](S(=O)(=O)c1cc(C(=O)Nc3cc(F)c(F)c(F)c3)ccc1Cl)C2 (some centres unmarked) [Example 23]
HBV; [2]
  EC50: < 0.104 µM

## O=C1NCC([C@H](O)[C@@H](O)[C@]2(O)C3CCC2C[C@@H](S(=O)(=O)c2cc(C(=O)Nc4ccc(F)c(F)c4)ccc2Cl)C3)O1 (some centres unmarked) [Example 348]
HBV; [2]
  EC50: < 0.104 µM

## O=C(Nc1cc(F)c(F)c(F)c1)c1ccc(Cl)c(S(=O)(=O)[C@H]2CC3CCC(C2)[C@]3(O)[C@H](O)[C@@H](O)CO)c1 [Example 51]
HBV; HepAD38 cells, five days after compound addition, 50% reduction of viral product vs no drug controls, read-out: HepAD38 EC50
  EC50: < 0.104 µM

## CC(C)(O)C(O)CNC(=O)[C@@]1(O)C2CC[C@H]1C[C@H](S(=O)(=O)c1cc(C(=O)Nc3cc(F)c(F)c(F)c3)ccc1Cl)C2 (some centres unmarked) [Example 148]
HBV; [2]
  EC50: 0.1 to 0.2 µM

## C[C@@]1(O)C2CC[C@H]1C[C@H](S(=O)(=O)c1cc(C(=O)Nc3cnccn3)ccc1Cl)C2 [Example 214]
HBV; [2]
  EC50: > 0.2 µM

## O=C(C[C@]1(O)C2CCC1C[C@@H](S(=O)(=O)c1cc(C(=O)Nc3ccc(F)c(F)c3)ccc1Cl)C2)NCCO [Example 184]
HBV; [2]
  EC50: < 0.104 µM

## O=C(Nc1ccc(F)c(F)c1)c1ccc(Cl)c(S(=O)(=O)C2CC3CCC(C2)C3=O)c1 (centres unmarked) [Example 204]
HBV; [2]
  EC50: 0.1 to 0.2 µM

## CC(C)c1cc(NC(=O)c2ccc(Cl)c(S(=O)(=O)[C@H]3CC4CCC(C3)[C@@]4(C)O)c2)ccc1F [Example 43]
HBV; [2]
  EC50: > 0.2 µM

## CC(C)C(O)[C@]1(O)C2CCC1C[C@@H](S(=O)(=O)c1cc(C(=O)Nc3ccc(F)c(F)c3)ccc1Cl)C2 (some centres unmarked) [Example 281]
HBV; [2]
  EC50: > 0.2 µM

## O=C(Nc1cc(F)c(F)c(F)c1)c1ccc(Cl)c(S(=O)(=O)[C@H]2CC3CCC(C2)[C@]3(O)CNC(=O)C2CC=CCC2)c1 (some centres unmarked) [Example 18]
HBV; [2]
  EC50: < 0.104 µM

## COCCOCCOC[C@]1(O)C2CCC1C[C@@H](S(=O)(=O)c1cc(C(=O)Nc3cc(F)c(F)c(F)c3)ccc1Cl)C2 [Example 99]
HBV; [2]
  EC50: < 0.104 µM

## COC(=O)N[C@@H](CO)C(=O)NC[C@]1(O)C2CCC1C[C@@H](S(=O)(=O)c1cc(C(=O)Nc3cc(F)c(F)c(F)c3)ccc1Cl)C2 [Example 49]
HBV; [2]
  EC50: > 0.2 µM

## CC(C)([C@H]1CC[C@](C)(O)CC1)S(=O)(=O)c1cc(C(=O)Nc2ccc(F)c(F)c2)ccc1Cl [Example 238]
HBV; [2]
  EC50: > 0.2 µM

## COC(=O)CNC(=O)CC1(O)CC(S(=O)(=O)c2cc(C(=O)Nc3ccc(F)c(F)c3)ccc2Cl)C1 (centres unmarked) [Example 244]
HBV; [2]
  EC50: > 0.2 µM

## COCCNC(=O)C[C@]1(O)C2CCC1C[C@@H](S(=O)(=O)c1cc(C(=O)Nc3ccc(F)c(F)c3)ccc1Cl)C2 [Example 190]
HBV; [2]
  EC50: < 0.104 µM

## O=C(Nc1ccc(F)c(F)c1)c1ccc(Cl)c(S(=O)(=O)[C@H]2CC3CCC(C2)[C@]3(O)[C@H](O)CO)c1 (single isomer, unassigned) [Example 174]
HBV; [2]
  EC50: < 0.104 µM

## C[C@H](O)COCC1(O)CC(S(=O)(=O)c2cc(C(=O)Nc3ccc(F)c(F)c3)ccc2Cl)C1 (some centres unmarked) [Example 230]
HBV; [2]
  EC50: > 0.2 µM

## CC(C)([C@H]1CC[C@@](C)(O)CC1)S(=O)(=O)c1cc(C(=O)Nc2ccc(F)c(F)c2)ccc1Cl [Example 237]
HBV; [2]
  EC50: > 0.2 µM

## C[C@H](O)[C@H](O)[C@]1(O)C2CCC1C[C@@H](S(=O)(=O)c1cc(C(=O)Nc3cc(F)c(F)c(F)c3)ccc1Cl)C2 (single isomer, unassigned) [Example 108]
HBV; [2]
  EC50: < 0.104 µM

## COC(=O)CCNC(=O)[C@H]1C[C@@H](S(=O)(=O)c2cc(C(=O)Nc3ccc(F)c(F)c3)ccc2Cl)C1 [Example 257b]
HBV; [2]
  EC50: > 0.2 µM

## CC(C)N(C[C@]1(O)C2CCC1C[C@@H](S(=O)(=O)c1cc(C(=O)Nc3ccc(F)c(F)c3)ccc1Cl)C2)C(C)C [Example 342]
HBV; [2]
  EC50: < 0.104 µM

## COC(=O)N[C@H](C(=O)N1C2CCC1CC(S(=O)(=O)c1cc(C(=O)Nc3cc(F)c(F)c(F)c3)ccc1Cl)C2)C(C)C (some centres unmarked) [Example 142]
HBV; Hepatitis B virus, HePAD38, 120 h, read-out: HepAD38 EC50 (μM)
  EC50: 0.1 to 0.2 µM

## NC(=O)C[C@H](N)C(=O)NC[C@]1(O)C2CCC1C[C@@H](S(=O)(=O)c1cc(C(=O)Nc3cc(F)c(F)c(F)c3)ccc1Cl)C2 [Example 27]
HBV; [2]
  EC50: > 0.2 µM

## COC(=O)C[C@]1(O)C2CCC1C[C@@H](S(=O)(=O)c1cc(C(=O)Nc3cc(F)c(F)c(F)c3)ccc1Cl)C2 [Example 32]
HBV; [2]
  EC50: > 0.2 µM

## COC(=O)CNC(=O)[C@H]1C[C@H](S(=O)(=O)c2cc(C(=O)Nc3ccc(F)c(F)c3)ccc2Cl)C1 [Example 253a]
HBV; [2]
  EC50: > 0.2 µM

## C[C@H](O)CC(=O)NC[C@]1(O)C2CCC1C[C@@H](S(=O)(=O)c1cc(C(=O)Nc3ccc(F)c(F)c3)ccc1Cl)C2 [Example 169]
HBV; [2]
  EC50: 0.1 to 0.2 µM

## C[C@]1(O)C2CCC1C[C@@H](S(=O)(=O)c1cc(C(=O)Nc3ccncn3)ccc1Cl)C2 [Example 221]
HBV; [2]
  EC50: > 0.2 µM

## O=C(Nc1cc(F)c(F)c(F)c1)c1ccc(Cl)c(S(=O)(=O)[C@H]2CC3CCC(C2)[C@]3(O)CO[C@H]2C[C@@H](O)[C@@H](O)C2)c1 [Example 34]
HBV; [2]
  EC50: < 0.104 µM

## Nc1cc(NC(=O)c2ccc(Cl)c(S(=O)(=O)[C@H]3CC4CCC(C3)[C@]4(O)C(O)c3ncc[nH]3)c2)ccc1F (some centres unmarked) [Example 287]
HBV; [2]
  EC50: > 0.2 µM

## COC(=O)NCCC(=O)NC[C@@]1(O)C2CC[C@H]1C[C@H](S(=O)(=O)c1cc(C(=O)Nc3cc(F)c(F)c(F)c3)ccc1Cl)C2 [Example 80]
HBV; [2]
  EC50: < 0.104 µM

## CC(C)([C@H]1CC[C@H](O)CC1)S(=O)(=O)c1cc(C(=O)Nc2ccc(F)c(F)c2)ccc1Cl [Example 236]
HBV; [2]
  EC50: > 0.2 µM

## C[C@]1(O)C2CCC1C[C@@H](S(=O)(=O)c1cc(C(=O)Nc3ccc(F)c(Br)c3)ccc1Cl)C2 [Example 30]
HBV; [2]
  EC50: < 0.104 µM

## CC(C)(C1CCC2(CC1)OCCO2)S(=O)(=O)c1cc(C(=O)Nc2ccc(F)c(F)c2)ccc1Cl [Example 231]
HBV; [2]
  EC50: > 0.2 µM
